Reference: patent US7666905B2, “Compositions comprising hepoxilin analogs and their use in the treatment of cancer” (priority 2002, dated 2010)

Assays:
Bcl-XL = experiment: Western blot of Bcl-XL expression in K562 cells; type: cell-based, human; details: FIG. 11
Description: (§1) Cells were seeded in 100 mm culture dishes at a cell count of 5×10^4 cells/ml in 10 ml of SM and incubated at 37° C. for 12 h. Drug treatments were: DMSO as control, 0.05 μM I-BOP in DMSO, 0.5 μM I-BOP with 2.8 μM PBT-3, or 2.8 μM PBT-3 in DMSO. These concentrations were chosen based on results generated from the cell proliferation studies using thymidine incorporation. Cells were treated with drugs as described above for 6 h. After 6 h, cells were washed with 1×PBS and scraped, pelleted by centrifugation (1500 rpm, 5 min, room temperature), and washed again and pelleted as above. 200 μl cell lysis buffer (20 mM Tris-d pH 7.4, 150 mM NaCl, 1 mM EDTA, 1 mM EGTA, 1% Tx-100, 2.5 mM […], 1 mM β-glycerophosphate, 1 mM […], 1 μg/ml leupeptin, and 1 mM PMSF) were added to resuspend each pellet followed by 30 minutes of incubation on ice. […] Protein concentration was determined using a BSA standard with a BCA protein assay kit, prior to Western blotting.
(§2) Aliquots of protein (40 μg) were heated to 90° C. in SDS sample load buffer for 5 minutes, then separated by SDS-PAGE on 10% gels and transferred to nitrocellulose membranes. […] Membranes were then washed 5× in TBS-T. Bound first antibodies were detected by HRP-anti-rabbit immunoglobulins at 1:1000 in 5% non-fat dry milk for 1 h at room temperature, washing 5× in TBS-T then with enhanced chemiluminscent autoradiography (ECL). […]

Akt = experiment: Western blot of Akt phosphorylation in K562 cells; type: cell-based, human; details: FIG. 11
Description: as §1, §2

K562 CML cells [1] = experiment: 3H-thymidine incorporation in K562 CML cells; type: cell-based, human; details: for effect on K562 cell growth: FIGS. 1-4
Description: Cell culture. Human leukemia K562 cells, obtained from the Hematology Department of the Hospital for Sick Children, were maintained as suspension cultures in RPMI 1640 medium containing 100 U/ml penicillin G, 100 μg/ml streptomycin, 10% (v/v) fetal bovine serum in a humidified atmosphere of 5% CO2 at 37° C. The ability of the cells to exclude Trypan Blue dye was used to assess cell viability.
Cells were seeded in 24 well dishes at a cell number of 5×10^4 cells/ml in starving medium (SM) of alpha Modified Eagle's Medium without fetal bovine serum (FBS) supplementation and incubated at 37° C. for 12 h. Tritiated thymidine ([^3H]-Thymidine; 25 Ci/mmol stock) was diluted in SM to a final activity of […]. The pharmacological agents tested were all diluted from their respective stocks to the desired concentration(s) with the tritiated SM. Cells receiving no drug treatments and cells treated with DMSO only were used as controls. SM was removed from the dishes, then treated with the various pharmacological agents in SM containing tritiated thymidine for 6 h at 37° C. PBT-3 was used at 2.8 μM in DMSO, (other than in dose response studies), I-BOP was used at 1.0 μM (in DMSO) and U46619 was used at 1.0 μM (in DMSO). Cells were trypsinized after 6 h and washed through Whatman GF-B/C membranes along with the supernatant. Dried membranes were deposited in scintillation vials with 8ml scintillation cocktail and the radioactivity present in the cells was counted with a liquid scintillation counter.
The effect of hepoxilin analogs on leukemia cells was examined using the CML K562 cell line. This cell line was derived from a human CML patient and is an accepted model of human chronic leukemia. The K562 cell line expresses the bcr/abl protein (Lozzio & Lozzio, 1975). It is relatively resistant to apoptosis (Martin et al., 1990), but ST1571 and other agents appear to control cell growth for a while before the cells overcome the drug effect (Weisberg & Griffin, 2000).

K562 cells [2] = experiment: 3H thymidine uptake in K562 cells after 2 days treatment, cell number reduction and culture without drug; type: cell-based, human; details: PBT analogues 28 μM, I-BOP and STI571 1 μM, then 3 days without compounds, FIG. 13
Description: K562 cells (3×10^5 cells/plate) were cultured for 2 days in 1% FBS/αMEM in the presence of 28 μM PBT-3 (∘) or 1 μM STI (●) and ^3H thymidine incorporation was determined. Untreated control cells (□) and cells treated with DMSO alone (▪) were also examined (test compounds were dissolved in DMSO). Results are shown in FIG. 12, Panel A. The cell number in all dishes was reduced to that observed after two days of PBT-3 treatment (7.5×10^3/ml) and the cells were subsequently cultured for 3 days in 10% FBS in the absence of the test compounds.
The hepoxilin analogs compare very favourably in efficacy with STI571.

[3] = test system: MDA-MB 231 breast cancer cells; experiment: FACS analysis of breast cancer cell line MDA-MB 231; type: cell-based; details: FIG. 7
Description: (§3) Cells were seeded at 1×10^6 cells/ml and treated as above. Cells were scraped into 1×PBS, pelleted, washed, and repelleted as above. Cells were washed with PBS twice and scraped. The cells were pelleted by centrifugation at 1500 rpm, 5 min, at 23° C. and washed again. Cells were fixed with 50 μl PBS/HBSS with 2% calf serum and then with addition of 1 ml ice cold 80% ethanol. Samples were incubated on ice for 30 min and PBS/HBSS fixing was repeated and followed by adding 1 ml 70% ethanol. Centrifugation (1500 rpm, 5 min, room temperature) was performed to produce cell pellets that were resuspended by 250 μl of 0.1 mg/ml Propidium Iodide (Sigma) with 0.6% NP-40. 250 μl of 2 mg/ml RNAse was added and mixed well. Cells were incubated in the dark for 30 min at room temperature. Samples were then filtered through 85 μm Nitex mesh and the stained cells were analyzed on a flow cytometer of FACScan (Becton-Dickinson). The acquisition was done with 10,000 events per sample. The CellQuest (Becton-Dickinson) statistic analysis was performed in each individual experiment.

K562 cells [4] = experiment: Nuclear fragmentation by Hoechst 33342 staining of K562 cells; type: cell-based, human; details: Hoechst 33342 dye, FIG. 5 Panel B; STI571 1 μM, I-BOP 1 μM
Description: Quantification of apoptosis and cell viability. Induction of apoptosis and loss of cell viability after treatment with PBT-3 were assessed by staining the cells with Hoechst 33342 dye. […] Pellets were suspended with 5 μg/ml of Hoechst 33342 dye for 10 minutes at room temperature. Micrographs of the DNA-stained cells were taken with a Zeiss Axiovert 100 TV video camera. Images were captured using Axiovision version 3.0.6 and processed using Photoshop 5.0. Apoptotic cells were identified based on nuclear fragmentation and chromatin condensation around the nucleus.
Nuclear fragmentation was assessed by direct microscopy of treated cells stained with Hoechst 33342 dye.

caspase-3 = experiment: Western blot of caspase-3 activation (cleavage to 17 kDa fragment) in K562 cells; type: cell-based, human; details: FIG. 14
Description: Western blot. […] Treatment was terminated by washing cells with ice-cold PBS buffer. Cell lysates were prepared in buffer containing 20 mM Tris-HCl pH 7.4, 150 mM NaCl, 1 mM EDTA, 1 mM EGTA, 1% Triton X-100, 2.5 mM sodium pyrophosphate, 1 mM β-glycerophosphate, 1 mM sodium orthovanadate, 1 mM PMSF and 1 μM leupeptin on ice for 60 minutes. The lysates were clarified by centrifugation at 15,000×g for 15 minutes at 4° C. Lysates were subjected to protein assay and kept at −80° C. 250 μg protein was immunoprecipitated with anti-cytochrome c antibody or anti-caspase-3 antibody coupled to protein A-agarose beads. After washing of the immunocomplexes with lysis buffer, SDS-PAGE sample loading buffer was added and the mixture was boiled for 5 minutes. After centrifugation, the supernatant was loaded onto 10-12% SDS-PAGE gel, and transferred to the Trans-Blot Nitrocellulose membrane (Bio-Rad). Protein bands on the nitrocellulose membranes were checked visually with Ponceau S-staining to assure equivalent protein loading/transfer comparing different samples. […] Bound antibodies were detected using enhanced chemilluminescence (ECL) kit and the membranes were exposed to Hyperfilm for ECL.

[5] = test system: normal aortic smooth muscle cells; experiment: FACS analysis of apoptosis in normal aortic smooth muscle cells; type: cell-based; details: FIG. 9
Description: as §3

normal bone marrow cells = experiment: FACS analysis of apoptosis in normal bone marrow cells; type: cell-based; details: FIG. 8
Description: as §3

3T3 L1 adipocytes = experiment: FACS analysis of apoptosis in normal 3T3 L1 adipocytes; type: cell-based; details: FIG. 10
Description: as §3

K562 CML cells [6] = experiment: DNA fragmentation (laddering) by agarose gel electrophoresis in K562 cells; type: cell-based, human; details: PBT-3 2.8 μM, 24 or 72 hours, FIG. 5 Panel A
Description: Analysis of DNA fragmentation by gel electrophoresis. […] The samples were loaded on 2% agarose gel containing ethidium bromide (0.2 μg/ml). DNA fragments of known size were used as a reference marker. After electrophoresis at 25 V for 5 hours, the gels were photographed under trans-UV illumination.
Studies were carried out to determine if PBT-3 affected apoptosis in K562 CML cells. Cells were cultured for 24 or 72 hours in the presence of growth medium (control) or PBT-3 (2.8 μM). Apoptosis was examined by DNA laddering. Cultures were harvested, DNA was extracted with DNeasy (Qiagen) and samples were loaded on a 2% agarose gel containing 0.2 μg/ml ethidium bromide. A λ BstII DNA digest with DNA fragments of known size was used as a reference marker. After electrophoresis at 25V for 5 h, gels were photographed under trans-UV illumination.

Cc1ccc(NC(=O)c2ccc(CN3CCN(C)CC3)cc2)cc1Nc1nccc(-c2cccnc2)n1 [STI571, Imatinib, reference compound]
effect on expression of the Bcl pathway (Bcl-XL) (Bcl-XL): blocked the expression of the Bcl pathway (Bcl-XL)
effect on phosphorylation of Akt (Akt): increased it

CCCCC[C@H](O)/C=C/[C@@H]1[C@@H](C/C=C\CCCC(=O)O)[C@H]2CO[C@@H]1C2 [U46619]
effect on K562 cell growth (K562 CML cells [1]): neither the thromboxane receptor agonists nor the thromboxane receptor antagonist affected K562 cell growth

CCCCC/C=C\CC1CC1/C=C/C(O)C/C=C\CCCC(=O)OC [PBT-2, 8(R)-hydroxy-11, 12-cyclopropyl-eicosa-5Z, 9E, 14Z-trienoic acid methyl ester]
effectiveness in inhibiting cell growth (rank among treatments) (K562 cells [2]): most effective treatment

CCCCC/C=C\CC1CC1C(O)/C=C\C/C=C\CCCC(=O)OC [PBT-3, 10(S)-hydroxy-11,12-cyclopropyl-eicosa-5Z,8Z,14Z-trienoic acid methyl ester]
synchronisation of cells (to Go phase) [3]: synchronisation effect
apoptotic effect (fragmentation of the nucleus and chromatin condensation) (K562 cells [4]): produced apoptotic cells
time of caspase-3 activation (cleavage into a 17 kDa fragment) (caspase-3): 6 h
concentration of maximum effect on inhibition of K562 cell growth (K562 CML cells [1]; FIG. 1): 1 µg/mL
effect on K562 cell growth (K562 CML cells [1]): inhibited growth of K562 cells
apoptotic effect on normal aortic smooth muscle cells [5]: no apoptotic effect
apoptotic effect on normal bone marrow cells (normal bone marrow cells): no apoptotic effect
apoptotic effect on normal (3T3 L1) adipocytes (3T3 L1 adipocytes): no apoptotic effect
effect on expression of the Bcl pathway (Bcl-XL) (Bcl-XL): essentially inactive
effect on phosphorylation of Akt (Akt): blocked phosphorylation of Akt
DNA fragmentation associated with apoptosis (K562 CML cells [6]): causes DNA fragmentation associated with apoptosis

O=C(O)CCC/C=C\C[C@@H]1[C@H](CNNC(=O)Nc2ccccc2)[C@H]2CC[C@@H]1O2 [SQ 29,548]
effect on K562 cell growth (K562 CML cells [1]): neither the thromboxane receptor agonists nor the thromboxane receptor antagonist affected K562 cell growth

O=C(O)CCC/C=C\CC1C2CCC(O2)C1/C=C/C(O)COc1ccc(I)cc1 (stereo not drawn) [I-BOP, [1S-[1α,2α(Z),3β(1E, 3S*), 4α]]-7-[3-[3-hydroxy-4-(iodophenoxy)-1-butenyl]-7-oxabicyclo[2.2.1]hept-2-yl]-5-heptenoic acid, reference compound]
apoptotic effect (fragmentation of the nucleus and chromatin condensation) (K562 cells [4]): No similar apoptotic effect
effect on K562 cell growth (K562 CML cells [1]): neither the thromboxane receptor agonists nor the thromboxane receptor antagonist affected K562 cell growth
